From BigSolDB 2.1

CS(=O)(=O)c1ccc([C@@H](O)[C@@H](CF)NC(=O)C(Cl)Cl)cc1 showed a solubility (mole fraction) (in THF, 279.65 K) of 0.0293, a solubility (mole fraction) (in THF, 284.55 K) of 0.0317 and a solubility (mole fraction) (in THF, 289.35 K) of 0.0342. It also gave a solubility (mole fraction) (in THF, 294.5 K) of 0.0374, a solubility (mole fraction) (in THF, 297.65 K) of 0.0398 and a solubility (mole fraction) (in acetone, 279.25 K) of 0.0261. For the same molecule, the solubility (mole fraction) (in acetone, 284.35 K) was 0.0294, the solubility (mole fraction) (in acetone, 289.1 K) was 0.0327 and the solubility (mole fraction) (in acetone, 294.45 K) was 0.0368. The solubility (mole fraction) (in acetone, 297.75 K) was 0.0396, the solubility (mole fraction) (in ethanol, 278.55 K) was 0.00126 and the solubility (mole fraction) (in ethanol, 283.45 K) was 0.00153. It also gave a solubility (mole fraction) (in ethanol, 288.8 K) of 0.00212, a solubility (mole fraction) (in ethanol, 293.7 K) of 0.00259 and a solubility (mole fraction) (in ethanol, 298.45 K) of 0.00315. The solubility (mole fraction) (in methanol, 278.55 K) was 0.00408, the solubility (mole fraction) (in methanol, 283.5 K) was 0.00488 and the solubility (mole fraction) (in methanol, 288.85 K) was 0.00598. For the same molecule, the solubility (mole fraction) (in methanol, 293.8 K) was 0.00724, the solubility (mole fraction) (in methanol, 298.65 K) was 0.00878 and the solubility (mole fraction) (in n-propanol, 278.35 K) was 0.0008. The solubility (mole fraction) (in n-propanol, 284.05 K) was 0.00106, the solubility (mole fraction) (in n-propanol, 289 K) was 0.00134 and the solubility (mole fraction) (in n-propanol, 293.5 K) was 0.00165. For the same molecule, the solubility (mole fraction) (in n-propanol, 298.65 K) was 0.00211, the solubility (mole fraction) (in water, 278.8 K) was 2.48e-05 and the solubility (mole fraction) (in water, 283.85 K) was 2.86e-05. It also gave a solubility (mole fraction) (in water, 289.1 K) of 3.62e-05, a solubility (mole fraction) (in water, 293.95 K) of 4.64e-05 and a solubility (mole fraction) (in water, 298.7 K) of 5.49e-05.
